# Assay results published in PubChem BioAssay AID1645868 (Buhrlage Lab, Dana-Farber Cancer Institute and Novartis …, 2021).
# Calls of active or inactive are those of the source.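 The calls were made as follows: active = maximal percent inhibition of the deubiquitinase OTUD3 of at least 30% across the tested doses; inactive = the rest.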
# Target: OTU domain-containing protein 3 (Homo sapiens) (UniProt Q5T2D3)
# Assay: Validation of screening hits, potency titration, in vitro enzymatic, OTU domain-containing protein 3 DUB inhibitors (AID 1645868)
# Conditions: purified OTUD3, ubiquitin-rhodamine cleavage fluorescence, 2 h
# OTU domain-containing protein 3 (Homo sapiens), sequence (Q5T2D3 whole entry, looked up, the tested form may be a part): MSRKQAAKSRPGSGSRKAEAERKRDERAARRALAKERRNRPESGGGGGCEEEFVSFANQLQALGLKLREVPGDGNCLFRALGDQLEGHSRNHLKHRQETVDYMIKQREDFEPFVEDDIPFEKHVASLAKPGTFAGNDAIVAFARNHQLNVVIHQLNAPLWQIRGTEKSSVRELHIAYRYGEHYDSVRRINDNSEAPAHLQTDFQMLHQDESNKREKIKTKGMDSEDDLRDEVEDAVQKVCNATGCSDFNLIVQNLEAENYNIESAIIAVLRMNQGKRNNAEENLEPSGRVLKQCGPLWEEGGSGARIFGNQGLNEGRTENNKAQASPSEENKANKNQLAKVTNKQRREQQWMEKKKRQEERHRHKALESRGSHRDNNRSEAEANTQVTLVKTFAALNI
row,Structure (SMILES),IC50
1,c1coc(CNc2nc(Nc3cccc4ccccc34)nc3ccccc23)c1,> 50 µM (inactive)
2,Cn1c(=O)cc(SCC(=O)NC2CCN(Cc3ccccc3)CC2)c2ccc(Cl)cc21,> 50 µM (inactive)
3,COc1ccc(CCNC(=O)CSc2cn(CCNC(=O)c3ccc(F)cc3)c3ccccc23)cc1OC,37.7 µM
4,CNC(=O)c1cc2c(=O)n3cccc(C)c3nc2n1Cc1ccccc1,> 50 µM (inactive)
5,O=c1ncn(Cc2ccc3c(c2)OCO3)cc1-c1ncc(C(F)(F)F)cc1Cl,> 50 µM (inactive)
6,O=C(NCc1ccc(-c2nc3cnccc3o2)cc1)c1ccccc1F,20.5 µM
7,COc1ccc(N2CCN(Cc3nnnn3Cc3ccc4c(c3)OCO4)CC2)cc1,> 50 µM (inactive)
8,Cc1c(C(=O)Nc2ccc(-c3nnc4n3CCCCC4)cc2)oc2c1ccc1ccccc12,> 50 µM (inactive)
9,Cc1cc(C)cc(NC(=O)CN2C(=O)CC(c3ccccc3)Sc3ccccc32)c1 (centres undefined),> 50 µM (inactive)
10,O=C(CCCCn1c(=O)c2ccccc2n(CC(=O)Nc2ccc(F)c(Cl)c2)c1=O)NCc1ccco1,> 50 µM (inactive)
11,O=C(CSc1nncc2ccccc12)Nc1ccc2c(c1)OCO2,> 50 µM (inactive)
12,Cc1c(CC(=O)N2CCN(c3ncccn3)CC2)c(=O)oc2cc(O)ccc12,34.1 µM
13,Cc1cc(C(F)(F)F)n(-c2ccc(NC(=O)Nc3cccc(C(F)(F)F)c3)cc2)n1,11.4 µM
14,CCOC(=O)c1cc2c(ccn2C)n1CC(=O)N1CCC(C)CC1,> 50 µM (inactive)
15,CCN(CC)c1cc(C)c2cc(NC(=O)c3ccncc3)ccc2n1,> 50 µM (inactive)
16,Cc1ccc(-n2c(-c3ccccc3)cn3c4c(=O)[nH]c(=O)n(C)c4nc23)cc1Cl,> 50 µM (inactive)
17,COc1ccc(CCn2cnc3c4ccccc4n(C)c3c2=O)cc1OC,> 50 µM (inactive)
18,CC1CCN(c2nnc(-c3nc(C4CC4)no3)c3ccccc23)CC1,> 50 µM (inactive)
19,O=C(NCc1ccc(Cl)cc1)Nc1cccc2ccccc12,> 50 µM (inactive)
20,COC(=O)c1ccc(C(=O)Nc2cc3ccccc3cc2NC(=O)c2ccc(C(=O)OC)cc2)cc1,19.1 µM
21,COCC(=O)Nc1cc(F)c2nc(N3CCOCC3)ccc2c1,> 50 µM (inactive)
22,O=C(CN1CCCc2ccccc21)Nc1ccc(N2CCOCC2)cc1,> 50 µM (inactive)
23,COc1cccc(/C=C/C(=O)Nc2ccc(N3CCOCC3)cc2)c1OC,> 50 µM (inactive)
24,CN1C(=O)[C@@]23C[C@]4([C@@]56C[C@]78SS[C@](CO)(C(=O)N7[C@@H]5Nc5ccccc56)N(C)C8=O)c5ccccc5N[C@@H]4N2C(=O)[C@]1(CO)SS3,> 50 µM (inactive)

row,Structure (SMILES),IC50
1,O=C(CCCCn1c(=O)c2ccccc2n(Cc2ccccc2F)c1=O)NCCc1ccccc1,17 µM
2,COc1ccccc1S(=O)(=O)N1CC[C@@H]2CN(C)[C@@H]2C1,> 50 µM (inactive)
3,COc1cccc(NC(=O)c2nnn(-c3ccccc3)n2)c1,> 50 µM (inactive)
4,Cc1ccc(-n2c(-c3ccccc3)cn3c4c(=O)[nH]c(=O)n(C)c4nc23)cc1C,2 µM
5,CCCc1cc(=O)oc2cc(OCC(=O)NCc3ccc(OC)cc3)ccc12,36.2 µM
6,COc1cccc(NC(=O)Cc2sc(Nc3cc(C)cc(C)c3)nc2O)c1,22.4 µM
7,CCN1C(SCc2ccccc2F)=NS(=O)(=O)c2ccccc21,> 50 µM (inactive)
8,COc1ccc(C(C)NC(=O)c2cnc(-c3ccccc3)nc2-c2ccncc2)cc1 (centres undefined),> 50 µM (inactive)
9,CC(=O)N1CCOc2cc(S(=O)(=O)N3CCCC3c3cc(C)no3)ccc21 (centres undefined),> 50 µM (inactive)
10,Cc1cc(C(=O)NC2(O)C(=O)c3ccccc3C2=O)n(C)n1,47.2 µM
11,O=C(Nc1nnc2n1CCCS2)c1cc2ccccc2o1,> 50 µM (inactive)
12,COc1ccc(OC)c(-c2cc(C(=O)Nc3c(C)nn(Cc4ccccc4)c3C)no2)c1,> 50 µM (inactive)
13,O=S1(=O)CCN(Cc2c(F)cccc2F)c2c(F)nc(N3CCOCC3)c(F)c21,> 50 µM (inactive)
14,CC(=O)c1ccc(N2C(=O)N(Cc3cccc([N+](=O)[O-])c3)c3ccccc3S2(=O)=O)cc1,> 50 µM (inactive)
15,COc1ccc(NC(=O)c2nnn(-c3ccccc3C)c2C)cc1OC,> 50 µM (inactive)
16,Cc1ccc2c(c1)c(=O)c(C(=O)c1ccc(F)cc1)cn2CC(=O)Nc1ccc2c(c1)OCCO2,> 50 µM (inactive)
17,COc1cccc(NC(=O)C2C3C=CC4(O3)C2C(=O)N(CCc2ccccc2Cl)C4C(=O)NC2CCCCC2)c1 (centres undefined),29.7 µM
18,O=C(Cn1cc(C(=O)C2CC2)c2ccccc21)NCc1ccc2c(c1)OCO2,31.2 µM
19,O=C(CSc1nnc(CNC(=O)c2ccccc2F)o1)Nc1ccc(OC(F)(F)F)cc1,29.6 µM
20,CC1=C(c2ccc(F)cc2)S(=O)(=O)N=C1Nc1ccc(Cl)cc1,> 50 µM (inactive)
21,CCOc1ccc(C(=O)Cn2c(=O)n(CC3CCCO3)c(=O)c3cc(OC)c(OC)cc32)cc1Cl (centres undefined),45.1 µM
22,O=C(O)c1ccccc1C(=O)Nc1ccc(SC(C(=O)Nc2cccc(Cl)c2)c2ccccc2)cc1 (centres undefined),33.6 µM
23,Cc1cccc(NC(=O)Cn2c(=O)n(Cc3ccc(F)cc3)c(=O)c3sccc32)c1,17.5 µM
24,COc1ccccc1CNC(=O)c1ccc(CSc2nc3ccncc3n2Cc2ccccc2)cc1,> 50 µM (inactive)

row,Structure (SMILES),IC50
1,CC(C)N(C(=O)Cn1c(=O)[nH]c2ccccc21)c1ccccc1,> 50 µM (inactive)
2,COc1ccc(C(C(=O)NC2CCCCC2)N(C(=O)CCCC(=O)Nc2ccccn2)c2ccccc2C)cc1 (centres undefined),22.3 µM
3,CCCC(=O)N1CCC2(CC1)Nc1ccccc1NC2=O,> 50 µM (inactive)
4,CCOc1ccc2cc3c(nc2c1)OC(=O)N(Cc1ccc(C)o1)C3,> 50 µM (inactive)
5,CC(C)c1cc(NCc2ccccc2)n2nc(-c3cccnc3)nc2n1,25.4 µM
6,CSc1cccc(NC(=O)CNC(=O)c2cc3ccccc3o2)c1,> 50 µM (inactive)
7,COc1cccc(NC(=O)C2CCC(CNS(=O)(=O)c3ccc4c(c3)C(C)(C)C(=O)N4C)CC2)c1 (centres undefined),> 50 µM (inactive)
8,Cc1sc(-c2ccc(Cl)nc2)nc1OC(=O)c1ccc(F)cc1F,> 50 µM (inactive)
9,Cc1cccc(-n2cnc(C(=O)NCc3ccc(F)cc3)c2)n1,> 50 µM (inactive)
10,O=S1(=O)CCN(CC2CCCO2)c2c(Oc3ccccc3)nc(F)c(Cl)c21 (centres undefined),> 50 µM (inactive)
11,CN1C(=O)COc2cc(-c3noc(C(=O)NC4CCCCCC4)n3)ccc21,> 50 µM (inactive)
12,Cc1sc2ccn(C)c(=O)c2c1C(=O)NC1CCCC1,30.8 µM
13,O=C(Cn1c(=O)n(CC(=O)NC2CCCC2)c(=O)c2ccccc21)Nc1cc(Cl)ccc1Cl,12.1 µM
14,COc1ccc(NC(=O)c2nnn(-c3cccc(C)c3)c2C)cc1,> 50 µM (inactive)
15,CN(C)C1CCN(C(=O)c2cc(-c3ccn(-c4ccccc4)n3)n3ccccc23)CC1,> 50 µM (inactive)
16,O=C(Cc1ccccc1F)Nc1nc(-c2ccco2)c(-c2ccco2)s1,> 50 µM (inactive)
17,COc1cccc(NC(=O)C2CCN(C(=O)c3cc(-c4cccnc4)n[nH]3)CC2)c1,> 50 µM (inactive)
18,CCc1ccccc1NC(=O)c1cc(-c2ccccn2)n[nH]1,> 50 µM (inactive)
19,NS(=O)(=O)c1cc(C(=O)OCC(=O)NC2CCCc3ccccc32)ccc1Cl (centres undefined),49 µM
20,CN1CCC(N(C)S(=O)(=O)c2ccc(NC(=O)c3cccc(OCc4ccccc4)c3)cc2)CC1,> 50 µM (inactive)
21,Cc1sc(NC(=O)CN2CCc3ccccc3C2)nc1-c1ccc2c(c1)CCN2C(=O)C1CCCCC1,> 50 µM (inactive)
22,Cc1cc(C(=O)Nc2ccc3nc(N4CCN(c5ncccn5)CC4)cc(C)c3c2)ccc1[N+](=O)[O-],> 50 µM (inactive)
23,CC[C@@]1(O)C[C@H](OC2CC(N(C)C)C(OC3CC(O)C(OC4CCC(=O)C(C)O4)C(C)O3)C(C)O2)c2c(cc3c(c2O)C(=O)c2c(O)ccc(O)c2C3=O)[C@H]1C(=O)OC (some centres undefined),> 5 µM (inactive)
24,Cn1c(=O)[nH]c(=O)c2c1nc1n(CCc3ccccc3)c(-c3ccccc3)cn21,> 50 µM (inactive)

row,Structure (SMILES),IC50
1,COc1ccccc1Nc1ncc(C(=O)NCCc2ccc(Cl)cc2)c2ccccc12,21.2 µM
2,CCc1ccc2[nH]c3c(c(=O)c2c1)CN(CC(=O)NCc1ccc2c(c1)OCO2)CC3,28.6 µM
3,COc1ccc(NC(=O)c2nc3n(n2)-c2ccccc2S(=O)(=O)N3)cn1,> 50 µM (inactive)
4,CCn1cnc2c1c(=O)n(CC(=O)NCc1ccccc1Cl)c(=O)n2Cc1ccccc1,> 50 µM (inactive)
5,CC1=C(C)C(c2c(-c3ccc(C)cc3)[nH]c3ccccc23)N(C(C)(C)C)C1=O (centres undefined),8.84 µM
6,CCn1cnc2ccc(C(=O)NC3CC3)cc2c1=O,> 50 µM (inactive)
7,CC(OC(=O)c1ccc2c(c1)OCCO2)C(=O)NCC1CCCCC1 (centres undefined),34.2 µM
8,O=C(Cn1c(=O)n(Cc2ccc(F)cc2)c(=O)c2sccc21)Nc1cccc(Cl)c1,23.1 µM
9,COc1cccc(NC(=O)C2Cc3ccccc3N2C(=O)c2ccccc2)c1 (centres undefined),20.1 µM
10,Cc1nn(Cc2ccccc2)c(C)c1C(=O)NC1CCCc2ccccc21 (centres undefined),> 50 µM (inactive)
11,C[C@@]12c3ccc4c(c3C(=O)c3occ(c31)C(O)C[C@H]2O)CCC4=O (some centres undefined),> 50 µM (inactive)
12,COc1cc(NC(=O)c2cc(-c3ccncc3)n(-c3ccc(F)cc3)n2)cc(OC)c1,> 50 µM (inactive)
13,CSc1nc(Cc2ccc(Cl)cc2)nc2ccccc12,> 50 µM (inactive)
14,NS(=O)(=O)c1cc(C(=O)OCC(=O)c2ccc3c(c2)OCCO3)ccc1Cl,> 50 µM (inactive)
15,CC1(C)Cc2c(sc3nc(Cc4ccccc4)nc(SCC(=O)Nc4ccccc4)c23)CO1,6.75 µM
16,Cc1cc(C(=O)N2CCOC3(CC=CCN(CCc4ccccc4)C3=O)C2)n2nccc2n1 (centres undefined),> 50 µM (inactive)
17,Cc1cc(C)c2sc(N(CCCn3ccnc3)C(=O)Cc3ccccc3)nc2c1,24 µM
18,Cc1ccccc1N1C(=O)/C(=C\c2cccn2C)c2ccccc2C1=O,> 50 µM (inactive)
19,NC(=O)c1nnn(-c2ccc(NC(=O)c3ccc(F)c(F)c3)cc2)n1,20.3 µM
20,Cc1ccc2nc(N3CCc4ccccc4C3)c3nncn3c2c1,> 50 µM (inactive)
21,Cc1ccc(NC(=O)c2cc(=O)n(C)c3c2c(=O)n(C)c(=O)n3C)c(C)c1,> 50 µM (inactive)
22,CCOc1ccc2c(c1)c(=O)c(C(=O)c1ccccc1)cn2CC(=O)Nc1ccccc1,19.4 µM
